The target of test [1] is T1, LasB elastase activity in dialysed supernatant from P. aeruginosa strain PA01 (Pseudomonas aeruginosa, UniProt P14756).
T1 construct: uses as source of enzyme dialysed supernatant from P. aeruginosa; endogenous in cells; host or cells: P. aeruginosa strain PA01 culture supernatant, filtered and dialysed
The experiment in a line: Elastin Congo Red assay to determine % inhibition (Assay 1). In kind it is biochemical. The following applies: read-out: Elastin hydrolysis % inhibition @ 50/25 μM inhibitor concentration Assay 1. In outline: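 Enzyme source: PA01 culture supernatant (19 h growth), filtered and dialysed into 50 mM Tris pH 7.4, 2.5 mM CaCl2. Mixed 1:1 with Elastin Congo Red (20 mg/mL) plus 0.01% Triton X-100 and compound (routinely 50 and 25 μM), 24 h at 37 °C shaking. Dye release at OD520 gives % inhibition versus DMSO.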

Test [2] concerns the target T2, purified LasB protein from P. aeruginosa (Pseudomonas aeruginosa, UniProt P14756).
T2 construct: purchased Merck or Charles River Laboratories
The experiment in a line: Fluorometric assay to determine Ki (Assay 1). In kind it is biochemical. The note with it: Ki (μM) Assay 1, purified LasB, substrate Abz-Ala-Gly-Leu-Ala-p-Nitro-Benzyl-Amide 250 μM, Ki calculated from IC50; inhibitor 0.006 to 200 μM. In outline:
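Purified LasB (10 to 140 ng/ml) with 250 μM Abz-Ala-Gly-Leu-Ala-p-nitrobenzylamide in 50 mM Tris-HCl pH 7.4, 2.5 mM CaCl2, 0.01% Triton X100; hydrolysis read by fluorescence (Ex 340/Em 415 nm) over 30 min at 37° C. Inhibitor 2-fold series, 0.006–200 μM (Assay 1) or 0.0016–200 μM (Assay 2); IC50 converted to Ki via Ki=IC50/(1+[S]/Km), Km=214 μM.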

Inhibition and Ki data for 29 molecules are collected here from US11000511B2, “Chemical compounds as antibiotics” (priority 2017, dated 2021).

As a reminder, the Ki is a dissociation constant, usually derived from enzyme kinetics or from competition with a known ligand.

T1 sequence (P14756 198-498): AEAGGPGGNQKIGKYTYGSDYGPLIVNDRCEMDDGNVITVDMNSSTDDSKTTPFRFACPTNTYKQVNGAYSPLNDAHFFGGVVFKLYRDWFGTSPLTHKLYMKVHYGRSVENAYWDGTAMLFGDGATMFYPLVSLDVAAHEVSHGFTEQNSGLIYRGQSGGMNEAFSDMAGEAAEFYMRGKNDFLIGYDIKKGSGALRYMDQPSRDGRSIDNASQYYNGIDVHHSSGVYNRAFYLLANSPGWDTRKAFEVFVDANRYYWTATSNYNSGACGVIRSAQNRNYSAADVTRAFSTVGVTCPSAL
T2 sequence (P14756 198-498): as above

For the molecule `O=C(O)CC1(C(=O)NCc2nc3c(Br)cccc3s2)Cc2ccccc2C1` [Example 61, 2-(2-(((4-bromobenzo[d]thiazol-2-yl)methyl)carbamoyl)-2,3-dihydro-1H-inden-2-yl)acetic acid], the inhibition at 50 µM in test [1] was more than 60%. Moreover, in test [2], the Ki is less than 0.3 µM.
For `O=C(O)CC1(C(=O)NCCc2nc3ccccc3s2)Cc2ccccc2C1` [Example 22, 2-[2-[2-(1,3-benzothiazol-2-yl)ethylcarbamoyl]indan-2-yl]acetic acid], in that order: 15 to 30% and 2 to 10 µM.
Turning to `CN(C)C1CN(c2ccc3nc(CNC(=O)C4(CC(=O)O)Cc5ccccc5C4)sc3c2)C1` [Example 67, 2-(2-(((6-(3-(dimethylamino)azetidin-1-yl)benzo[d]thiazol-2-yl)methyl)carbamoyl)-2,3-dihydro-1H-inden-2-yl)acetic acid], the inhibition at 50 µM in test [1] was more than 60%. The Ki in test [2] was 0.3 to 2 µM.
Turning to `C[N+]1(C)CCC(OC(=O)[C@H](Cc2c[nH]c3ccccc23)NC(=O)C2(CC(=O)O)Cc3ccccc3C2)CC1` [Example 116, (S)-2-(2-((1-((1,1-dimethylpiperidin-1-ium-4-yl)oxy)-3-(1H-indol-3-yl)-1-oxopropan-2-yl)carbamoyl)-2,3-dihydro-1H-inden-2-yl)acetate], the inhibition at 50 µM in test [1] is more than 60%. Moreover, in test [2], the inhibitory constant (Ki) is 0.3 to 2 µM.
On to `O=C(O)CC1(C(=O)NCc2coc3ccccc23)Cc2ccccc2C1` [Example 57, 2-[2-(benzofuran-3-ylmethylcarbamoyl)indan-2-yl]acetic acid], for which, in test [1], the inhibition at 50 µM is 30 to 60%. The Ki in test [2] was 0.3 to 2 µM.
Turning to `Cn1c(CNC(=O)C2(CC(=O)O)Cc3ccccc3C2)cc2ccccc21` [Example 9, 2-[2-[(1-methylindol-2-yl)methylcarbamoyl]indan-2-yl]acetic acid], the inhibition at 50 µM in test [1] is more than 60%. Moreover, the Ki in test [2] was less than 0.3 µM.
As to `O=C(O)CC1(C(=O)NCc2nc3c(N4CCOCC4)cccc3s2)Cc2ccccc2C1` [Example 66, 2-(2-(((4-morpholinobenzo[d]thiazol-2-yl)methyl)carbamoyl)-2,3-dihydro-1H-inden-2-yl)acetic acid], in test [1], the inhibition at 50 µM was more than 60%. The Ki in test [2] was 0.3 to 2 µM.
For the molecule `NCCCc1ccc2nc(CNC(=O)C3(CC(=O)O)Cc4ccccc4C3)sc2c1` [Example 38, 2-[2-[[6-(3-aminopropyl)-1,3-benzothiazol-2-yl]methylcarbamoyl]indan-2-yl]acetic acid], the inhibition at 50 µM in test [1] is more than 60%. Also, the Ki in test [2] is 0.3 to 2 µM.
In the case of `C[N+](C)(C)C1CN(c2ccc3sc(CNC(=O)C4(CC(=O)[O-])Cc5ccccc5C4)nc3c2)C1` [Example 75, 2-[2-[[5-[3-(trimethylammonio)azetidin-1-yl]-1,3-benzothiazol-2-yl]methylcarbamoyl]indan-2-yl]acetate], in test [1], the inhibition at 50 µM was more than 60%. Further, the Ki in test [2] was 0.3 to 2 µM.
As for `Cn1cnc(CNC(=O)C2(CC(=O)O)Cc3ccccc3C2)c1` [Example 21, 2-[2-[(1-methylimidazol-4-yl)methylcarbamoyl]indan-2-yl]acetic acid], the inhibition at 50 µM in test [1] was 30 to 60%. The inhibition constant Ki in test [2] is 2 to 10 µM.
`C[N+](C)(C)C[C@H]1C[C@H](c2ccc3nc(CNC(=O)C4(CC(=O)[O-])Cc5ccccc5C4)sc3c2)C1` [Example 92, 2-[2-[[6-[(1r,3r)-3-[(trimethylammonio)methyl]cyclobutyl]-1,3-benzothiazol-2-yl]methylcarbamoyl]indan-2-yl]acetate]: the inhibition at 50 µM in test [1] was more than 60%. The Ki in test [2] is 0.3 to 2 µM.
Turning to `O=C(O)CC1(C(=O)NCc2nc3cc(O)ccc3s2)Cc2ccccc2C1` [Example 130, 2-[2-[(5-hydroxy-1,3-benzothiazol-2-yl)methylcarbamoyl]indan-2-yl]acetic acid], the inhibition at 50 µM in test [1] is more than 60%. In test [2], the Ki was less than 0.3 µM.
As for `C[N+](C)(C)CCNC(=O)[C@H](Cc1c[nH]c2ccccc12)NC(=O)C1(CC(=O)O)Cc2ccccc2C1` [Example 46, (2-{[(1S)-2-(1H-indol-3-yl)-1-{[2-(trimethylammonio)ethyl]carbamoyl}ethyl]carbamoyl}-1,3-dihydroinden-2-yl)acetate], in test [1], the inhibition at 50 µM lay within 30 to 60%. Further, the Ki in test [2] is 2 to 10 µM.
As to `O=C(O)CC1(C(=O)NCc2nc3ccc(N4CCNCC4)cc3s2)Cc2ccccc2C1` [Example 41, 2-[2-[(6-piperazin-1-yl-1,3-benzothiazol-2-yl)methylcarbamoyl]indan-2-yl]acetic acid], in test [1], the inhibition at 50 µM is 30 to 60%. The Ki in test [2] is 0.3 to 2 µM.
Regarding `O=C(O)CC1(C(=O)NCc2nc3cc(Cl)ccc3[nH]2)Cc2ccccc2C1` [Example 1, 2-(2-{[(5-Chloro-1H-1,3-benzodiazol-2-yl)methyl]carbamoyl}-2,3-dihydro-1H-inden-2-yl)acetic acid], the inhibition at 50 µM in test [1] was 30 to 60%. The Ki in test [2] was 0.3 to 2 µM.
`CCOc1cccc2sc(CNC(=O)C3(CC(=O)O)Cc4ccccc4C3)nc12` [Example 64, 2-(2-(((4-ethoxybenzo[d]thiazol-2-yl)methyl)carbamoyl)-2,3-dihydro-1H-inden-2-yl)acetic acid]: the inhibition at 50 µM in test [1] was more than 60%. For the same molecule, in test [2], the Ki was 0.3 to 2 µM.
On to `COC(=O)[C@H](Cc1c[nH]c2ccccc12)NC(=O)C1(CC(=O)O)Cc2ccccc2C1` [Example 53, (S)-2-(2-((3-(1H-indol-3-yl)-1-methoxy-1-oxopropan-2-yl)carbamoyl)-2,3-dihydro-1H-inden-2-yl)acetic acid], for which the inhibition at 50 µM in test [1] was more than 60%. In test [2], the Ki is 0.3 to 2 µM.
`CN(C)CCc1ccc2nc(CNC(=O)C3(CC(=O)O)Cc4ccccc4C3)sc2c1` [Example 95, 2-[2-[[6-[2-(dimethylamino)ethyl]-1,3-benzothiazol-2-yl]methylcarbamoyl]indan-2-yl]acetic acid]: the inhibition at 50 µM in test [1] was 30 to 60%. The Ki in test [2] is 0.3 to 2 µM.
In the case of `O=C(O)CC1(C(=O)NCCc2ccc(O)cc2)Cc2ccccc2C1` [Example 13, 2-[2-[2-(4-hydroxyphenyl)ethylcarbamoyl]indan-2-yl]acetic acid], the inhibition at 50 µM in test [1] fell in the range of 30 to 60%. Besides, in test [2], the Ki was 2 to 10 µM.
Regarding `O=C(O)CC1(C(=O)NCc2nc3c(F)cccc3s2)Cc2ccccc2C1` [Example 60, 2-(2-(((4-fluorobenzo[d]thiazol-2-yl)methyl)carbamoyl)-2,3-dihydro-1H-inden-2-yl)acetic acid], the inhibition at 50 µM in test [1] was more than 60%. Besides, the Ki in test [2] was less than 0.3 µM.
`O=C(O)CC1(C(=O)NCCc2cc3ccccc3[nH]2)Cc2ccccc2C1` [Example 27, 2-[2-[2-(1H-indol-2-yl)ethylcarbamoyl]indan-2-yl]acetic acid]: the inhibition at 50 µM in test [1] was in the range of 15 to 30%. Further, in test [2], the Ki was 2 to 10 µM.
With `CN(C)CCCc1ccc2sc(CNC(=O)C3(CC(=O)O)Cc4ccccc4C3)nc2c1` [Example 89, 2-[2-[[5-[3-(dimethylamino)propyl]-1,3-benzothiazol-2-yl]methylcarbamoyl]indan-2-yl]acetic acid], the inhibition at 50 µM in test [1] was more than 60%. Moreover, the Ki in test [2] is 0.3 to 2 µM.
On to `NCCc1ccc2nc(CNC(=O)C3(CC(=O)O)Cc4ccccc4C3)sc2c1` [Example 80, 2-[2-[[6-(2-aminoethyl)-1,3-benzothiazol-2-yl]methylcarbamoyl]indan-2-yl]acetic acid], for which, in test [1], the inhibition at 50 µM was more than 60%. Moreover, in test [2], the Ki is 0.3 to 2 µM.
`CN(C)CCOc1ccc2nc(CNC(=O)C3(CC(=O)O)Cc4ccccc4C3)sc2c1` [Example 110, 2-[2-[[6-[2-(dimethylamino)ethoxy]-1,3-benzothiazol-2-yl]methylcarbamoyl]indan-2-yl]acetic acid]: the inhibition at 50 µM in test [1] is 30 to 60%. For the same molecule, in test [2], the Ki is 0.3 to 2 µM.
Turning to `O=C(O)CC1(C(=O)NCc2nc3cnccc3s2)Cc2ccccc2C1` [Example 127, 2-[2-(thiazolo[4,5-c]pyridin-2-ylmethylcarbamoyl)indan-2-yl]acetic acid], the inhibition at 50 µM in test [1] is more than 60%. In test [2], the inhibition constant Ki is 0.3 to 2 µM.
On to `Cc1oc2ccccc2c1CNC(=O)C1(CC(=O)O)Cc2ccccc2C1` [Example 20, 2-[2-[(2-methylbenzofuran-3-yl)methylcarbamoyl]indan-2-yl]acetic acid], for which the inhibition at 50 µM in test [1] fell in the range of 30 to 60%. Besides, the Ki in test [2] was 2 to 10 µM.
With `C[N+](C)(C)CCCc1ccc2sc(CNC(=O)C3(CC(=O)[O-])Cc4ccccc4C3)nc2c1` [Example 90, 2-[2-[[5-[3-(trimethylammonio)propyl]-1,3-benzothiazol-2-yl]methylcarbamoyl]indan-2-yl]acetate], the inhibition at 50 µM in test [1] is more than 60%. The Ki in test [2] was 0.3 to 2 µM.
The like results for `NCCCc1ccc2sc(CNC(=O)C3(CC(=O)O)Cc4ccccc4C3)nc2c1` [Example 40, 2-[2-[[5-(3-aminopropyl)-1,3-benzothiazol-2-yl]methylcarbamoyl]indan-2-yl]acetic acid] were, in that order, more than 60% and less than 0.3 µM.
`O=C(O)CC1(C(=O)NCc2nc3c(I)cccc3s2)Cc2ccccc2C1` [Example 63, 2-(2-(((4-iodobenzo[d]thiazol-2-yl)methyl)carbamoyl)-2,3-dihydro-1H-inden-2-yl)acetic acid]: the inhibition at 50 µM in test [1] was more than 60%. Besides, the Ki in test [2] is less than 0.3 µM.
